Read-outs that look alike come from different tables or passages of the source.
Experiments:
[1] = biological target: T1, human A3 receptors (Homo sapiens, UniProt P0DMS8); experiment: radioligand binding, displacement of specific [125I]AB-MECA binding at human A3 receptors expressed in HEK-293 cells; details: for Ki: [125I]AB-MECA, read-out: Ki hA3
T1 construct: expressed in transfected cells; host or cells: HEK-293 cells (membranes)
T1 sequence (P0DMS8 1-318): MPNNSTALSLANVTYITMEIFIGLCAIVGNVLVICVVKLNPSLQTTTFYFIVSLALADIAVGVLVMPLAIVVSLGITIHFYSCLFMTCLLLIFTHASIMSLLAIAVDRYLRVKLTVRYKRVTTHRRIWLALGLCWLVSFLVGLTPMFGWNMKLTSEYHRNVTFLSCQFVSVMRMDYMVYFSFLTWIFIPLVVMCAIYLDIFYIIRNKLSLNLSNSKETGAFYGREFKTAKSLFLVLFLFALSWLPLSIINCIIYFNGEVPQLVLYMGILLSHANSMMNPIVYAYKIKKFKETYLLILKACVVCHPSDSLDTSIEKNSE
Method: A3 receptors expressed in HEK293 cells, in membranes, expressed as
binding displaced at 100 μM.

[2] = biological target: T2, A2a receptors (Rattus norvegicus, UniProt P30543); experiment: radioligand binding, displacement of specific [3H]CGS 21680 binding in rat striatal membranes; details: for Ki: [3H]CGS 21680, rat striatal membranes
T2 construct: Displacement of specific [^3 H]; from tissue; host or cells: rat striatal membranes
T2 sequence (P30543 whole entry): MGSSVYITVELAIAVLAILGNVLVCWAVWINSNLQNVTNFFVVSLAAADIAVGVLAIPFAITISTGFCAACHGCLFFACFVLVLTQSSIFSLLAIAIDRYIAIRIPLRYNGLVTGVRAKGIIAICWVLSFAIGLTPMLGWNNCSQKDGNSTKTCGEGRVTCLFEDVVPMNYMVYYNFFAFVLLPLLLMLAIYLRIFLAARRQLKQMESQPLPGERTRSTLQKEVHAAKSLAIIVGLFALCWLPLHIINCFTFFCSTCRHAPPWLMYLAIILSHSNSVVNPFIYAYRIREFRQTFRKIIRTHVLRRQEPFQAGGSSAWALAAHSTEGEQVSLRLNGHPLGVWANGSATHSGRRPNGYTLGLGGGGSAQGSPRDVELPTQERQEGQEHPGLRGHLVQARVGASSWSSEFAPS
Method: ^b Displacement of specific [^3 H]
or as a percentage of specific binding displaced at 100 μM.

[3] = biological target: T3, A1 receptors (Rattus norvegicus, UniProt P25099); experiment: biochemical; type: binding; details: for Ki: rat brain membranes, read-out: Ki rA1
T3 sequence (P25099 1-326): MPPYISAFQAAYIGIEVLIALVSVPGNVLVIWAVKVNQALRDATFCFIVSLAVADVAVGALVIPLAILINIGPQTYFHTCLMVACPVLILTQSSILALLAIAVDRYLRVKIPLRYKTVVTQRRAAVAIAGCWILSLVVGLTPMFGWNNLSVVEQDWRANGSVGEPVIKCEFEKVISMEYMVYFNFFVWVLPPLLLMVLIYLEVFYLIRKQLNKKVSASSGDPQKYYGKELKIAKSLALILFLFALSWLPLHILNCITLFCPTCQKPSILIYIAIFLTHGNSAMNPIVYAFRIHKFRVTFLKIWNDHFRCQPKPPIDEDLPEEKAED
Method: ^a Displacement of specific [^3 H] PIA binding in rat brain
percentage of specific binding displaced at 100 μM.

[4] = biological target: T4, rat A3 receptor (Rattus norvegicus, UniProt P28647); experiment: A3-agonist-elicited inhibition of adenylyl cyclase in membranes from CHO cells stably expressing the rat A3 receptor; type: biochemical; details: compound 50 μM, 1 μM forskolin
T4 construct: expressed in transfected cells; host or cells: CHO cells (membranes)
T4 sequence (P28647 1-320): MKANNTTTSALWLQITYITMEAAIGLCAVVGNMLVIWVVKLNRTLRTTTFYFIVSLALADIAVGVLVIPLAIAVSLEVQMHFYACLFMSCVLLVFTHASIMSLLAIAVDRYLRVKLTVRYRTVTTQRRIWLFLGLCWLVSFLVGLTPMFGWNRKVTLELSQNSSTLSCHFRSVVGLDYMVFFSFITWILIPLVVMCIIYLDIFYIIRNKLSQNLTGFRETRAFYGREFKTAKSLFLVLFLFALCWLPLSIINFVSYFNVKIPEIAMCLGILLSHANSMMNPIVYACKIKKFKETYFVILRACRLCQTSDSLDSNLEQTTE
Method: ^a Assayed in membranes from CHO cells stably expressing the rat
A3 receptor in the presence of 1 μM forskolin.

[5] = test system: bak protein in U-937 cells; experiment: expression of apoptosis-inducing protein bak by immunofluorescence, U-937 cells; type: cell-based; details: 10 nM
Method: (§1) Cells were fixed as following steps: 10 min with 1% formalin in PBS, 5 min with […] methanol and 2 min with ice cold acetone, then permebilized with 0.1% Nonidet P-40 for 20 min. After the preparation, the specimens were incubated step by step: 10% goat serum in PBS for 20 min, mouse monoclonal anti-bak antibody (5 μg/ml PBS-BSA) for 60 min, Rhodamine (TRITC)-conjugated AffiniPure Goat Anti-mouse IgG (H+L) in PBS-BSA for 60 min. The specimens were washed 3-5 times with PBS after every step. The glass slides were stored at 4° C. in the dark.
(§2) The mechanism of the apoptosis observed in response to either A3 agonists was investigated.

[6] = test system: bak protein in HL-60 cells; experiment: expression of apoptosis-inducing protein bak by immunofluorescence, HL-60 cells; type: cell-based; details: 10 nM
Method: as §1, §2

[7] = IB-MECA 10^-6 M, read-out: % Inhibition of adenylyl cyclase, IB-MECA (10^-6 M)
[8] = IB-MECA 10^-7 M, read-out: % Inhibition of adenylyl cyclase, IB-MECA (10^-7 M)

Compound	Ki ([2]; Table 15, read-out: Ki rA2A)	Ki ([3]; Table 15, [3H]PIA)	Ki ([1]; Table 15, HEK membranes)	inhibition at 50 µM [4, 7]	inhibition at 50 µM [4, 8]	also measured
COc1ccc2c(c1)C(=O)[C@H](O)[C@@H](/C=C/c1ccccc1)O2 (relative stereo) [Compound 15]	–	–	–	39.2 ± 3%	25.9 ± 2.4%	rA1/hA3 [1]: > 8; Ki ([1]; Table 4, HEK-293 membranes): 21100 nM; inhibition at 100 µM ([2]; Table 4, 10^-4 M, read-out: displacement of specific binding rA2a): < 10%; inhibition at 100 µM ([3]; Table 4, 10^-4 M, read-out: displacement of specific binding rA1): < 10%
O=c1c(O)c(-c2ccccc2)oc2cc(O)cc(O)c12 [Compound 1, galangin, reference compound]	–	–	–	35.3 ± 7.2%	23.7 ± 5.1%	Ki ([2]; Table 3, read-out: Ki rA2a): 966 ± 164 nM; Ki ([3]; Table 3, [3H]PIA): 863 ± 92 nM
CCOc1cc(OCC)c2c(=O)c(OCC)c(-c3ccccc3)oc2c1 [Compound 3a, 3,5,7-Triethoxyflavone]	–	–	–	19.1 ± 7.4%	2.2 ± 2.2%	Ki ([2]; Table 3, read-out: Ki rA2a): 3310 nM; Ki ([3]; Table 3, [3H]PIA): 603 nM
CCOc1c2ccoc2cc2oc(/C=C/c3ccccc3)cc(=O)c12 [Compound 20, 4-ethyloxy-7-trans-styryl-visnagin]	–	–	–	40.9 ± 3.7%	21.2 ± 3.9%	Ki ([2]; Table 5, read-out: Ki rA2a): 33800 ± 14800 nM; Ki ([3]; Table 5, [3H]PIA): 35600 ± 12700 nM
O=C(Cc1ccccc1)Nc1nc2ccc(Cl)cc2c2nc(-c3ccco3)nn12 [Compound 153, 9-Chloro-2-(2-furyl)-5-phenylacetylamino[1,2,4]triazolo [1,5-c]quinazoline]	52 ± 8.8 nM	305 ± 51 nM	–	–	–	expression of bak protein, U-937 [5]: induced; expression of bak protein, HL-60 [6]: induced
CC(C)(C)OC(=O)NCCCC(=O)Nc1nc2ccc(Cl)cc2c2nc(-c3ccco3)nn12 [Compound 154]	173 nM	91.3 ± 13.2 nM	32 nM	–	–	–
O=C(C=Cc1ccccc1)Nc1nc2ccc(Cl)cc2c2nc(-c3ccco3)nn12 [Compound 161]	–	–	–	–	–	Ki ([1]; Table 16, HEK membranes): 60 ± 6.3 nM; Ki ([2]; Table 16, read-out: Ki rA2A): 59.8 ± 13.4 nM; Ki ([3]; Table 16, [3H]R-PIA): 282 ± 71 nM

Now from value to molecule, other results behind:

Ki ([2]; Table 15, read-out: Ki rA2A)	Ki ([3]; Table 15, [3H]PIA)	Ki ([1]; Table 15, HEK membranes)	Compound	inhibition at 50 µM [4, 7]	inhibition at 50 µM [4, 8]	also measured
14 nM	11.3 ± 2.4 nM	15.2 ± 6.6 nM	NCCCC(=O)Nc1nc2ccc(Cl)cc2c2nc(-c3ccco3)nn12 [Compound 155]	–	–	–
> 1000 nM	> 1000 nM	856 ± 156 nM	O=C(Nc1nc2ccc(Cl)cc2c2nc(-c3ccc(Br)o3)nn12)c1ccccc1 [Compound 156]	–	–	–
4000 nM	3000 nM	260 ± 87 nM	O=c1[nH]c2ccc(Cl)cc2c2nc(-c3ccco3)nn12 [Compound 158, 9-Chloro-2-(2-furyl)[1,2,4]triazolo[1,5-c]quinazolin-5-(6H)-one]	–	–	–

— patent US6066642A, “Dihydropyridine-, pyridine-, benzopyran-4-one- and triazoloquinazoline derivative, their preparation and their use as adenosine receptor antagonists” (priority 1998, dated 2000)
